Assay results as given in patent US20250268856A1, “Pain Relieving Method” (Animal Ethics Pty Ltd, priority 2019, published 2025).
Values joined by “and” are separate entries in the source; they are usually repeats but may differ in a detail not shown here. Equal entries are not always repeated.

Tests used:
[1] = In-house trials of tetracaine applied directly to the open castration wound; format: in vivo, piglets; details: applied to open castration wound 20 seconds prior to severing cordal tissues, 1 ml/kg of 2% or 5% solution
Source text: Tetracaine is a rapid onset surface anaesthetic, that is rapidly metabolised by plasma-esterases, such that may induce high potency local effects with minimal systemic effects. […] Topical wound application formulations were thus developed to examine the potential for systemic NSAID analgesic drug (meloxicam) delivery via topical wound application, applied alone, or combined with topical local anaesthetic (tetracaine) to the castration wound in piglets. Topical wound application formulations were developed containing meloxicam alone, tetracaine alone and combinations of meloxicam and tetracaine to examine systemic absorption and clinical effects.

[2] = Study 2: motor response scores to the procedure of castration; format: in vivo, piglets; details: during the procedure (castration), versus placebo, topical to open wound
Procedure: (§1) Study 2: A follow-up study confirmed efficacy of meloxicam analgesic effects when applied to piglets via topical wound application either alone or in combination with tetracaine 2%. Piglets were treated with placebo, meloxicam 0.1%, tetracaine 2% or a combination of tetracaine 2% and meloxicam 1%, otherwise formulated as above, and examined for clinical efficacy via documentation of motor response scores to a) the procedure of castration, and b) pre- and post-operative mechanical sensory testing of the wound site using Von-Frey filament testing.

[3] = Study 2: post-operative mechanical sensory testing of the wound site using Von-Frey filament testing (motor response scores); format: in vivo, piglets; details: versus placebo
Procedure: as §1

[4] = Study 1: porcine plasma profiles of tetracaine and meloxicam applied topically to the castration surgical site; format: in vivo
Procedure: Dose Calculation, Preparation & Administration: Study animals were dosed according to the Treatment Regime outlined in Table 4 below. No preparation of any of the IVPs was performed other than inversion of each container 2-3 times prior to treatment.
Blood Analysis: Blood samples were collected from allocated animals via anterior vena-caval puncture using 21G, 1.5″ needle attached to 10 mL syringes and transferred immediately into 5 mL lithium heparin blood tubes. Blood samples were processed for extraction of plasma on the day of collection, which for each sample was stored in duplicate, frozen (˜−18° C.). Replicate 1 plasma samples were forwarded frozen to a laboratory for tetracaine and meloxicam analyses after the conclusion of the animal phase.
Study animals were dosed according to the application rates detailed in Table 4. No preparation of any of the IVPs was required prior to dosing.
Castration was performed using a sterile scalpel as per the following process: • 1. Piglet to be gently restrained (for a minimum of 30 seconds prior to incision) in Kerble piglet cradle in order to expose the ano-genital region of the piglet. • 2. Only when piglet is settled, incise scrotum (including tunica) with one single transverse incision to expose and exteriorise each testis; • 3. Immediately apply treatment (40% total dose to each side) to coat the exposed spermatic cord and the cut skin edge. […] Wait 30 seconds; • 5. The testis may then be removed by severing the cord as per routine procedure. Remove each testis as per normal procedure. • 6. Apply the remaining 20% of the total dose evenly of the surface of the surgical wound.

[5] = male, pig, in vivo

Compound: CCCCNc1ccc(C(=O)OCCN(C)C)cc1 [Tetracaine]
- Pain during castration and in the first minutes and 1-2 hours following [1]: effective to ameliorate pain
- Motor response scores [2]: significant reduction
- Motor response scores ([3]; 1 minute following the procedure): significant reduction
- Motor response scores ([3]; 1 hour following the procedure): anaesthetic effects were still evident
- Motor response scores ([3]; 12 hours following the procedure): rebound hyperaesthesia
- Time of peak plasma tetracaine level ([4]; male, pig, in vivo): 1 h

Compound: CCCCN1CCCCC1C(=O)Nc1c(C)cccc1C (stereo not drawn) [bupivacaine]
- Period plasma levels remained at those levels [5]: 24 h

Compound: Cc1cnc(NC(=O)C2=C(O)c3ccccc3S(=O)(=O)N2C)s1 [Meloxicam]
- Meloxicam concentration in porcine plasma ([4]; 15 min post-treatment, individual piglets, topical to castration wound): 144.8 ng/mL and 119.8 ng/mL and 81.8 ng/mL and 88.2 ng/mL
- Meloxicam concentration in porcine plasma ([4]; 30 min post-treatment, individual piglets, topical to castration wound): 166.0 ng/mL and 94.6 ng/mL and 101.3 ng/mL and 104.8 ng/mL
- Meloxicam concentration in porcine plasma ([4]; 1 hr post-treatment, individual piglets, topical to castration wound): 102.9 ng/mL and 118.0 ng/mL
- Meloxicam concentration in porcine plasma ([4]; 2 hr post-treatment, individual piglets, topical to castration wound): 126.7 ng/mL and 238.9 ng/mL
- Meloxicam concentration in porcine plasma ([4]; 4 hr post-treatment, individual piglets, topical to castration wound): 100.9 ng/mL and 458.7 ng/mL and 63.3 ng/mL and 230.0 ng/mL and 244.6 ng/mL and 113.2 ng/mL
- Sustained plasma levels of meloxicam ([4]; group level (FIG. 4)): 100 to 200 ng/mL
- concentration at 15 min ([4]; male, pig, plasma, topical, 15 min post-treatment, individual piglets, topical to castration wound): 86.9 ng/mL
- concentration at 30 min ([4]; male, pig, plasma, topical, 30 min post-treatment, individual piglets, topical to castration wound): 109 ng/mL
- concentration at 1 hr ([4]; male, pig, plasma, topical, 1 hr post-treatment, individual piglets, topical to castration wound): 190 ng/mL
- concentration at 2 hr ([4]; male, pig, plasma, topical, 2 hr post-treatment, individual piglets, topical to castration wound): 126 ng/mL
- Time of peak plasma meloxicam level ([4]; post-treatment, group level (FIGS. 4, 5)): 4 h
